Laboratory results published in patent US20190382850A1, “METHOD FOR IDENTIFYING MITOCHONDRIAL DNA IN EXTRACELLULAR VESICLES AND TREATMENT OF MTDNA-RELATED DISORDERS AND CANCER” (Memorial Sloan-Kettering Cancer Center, priority 2017, published 2019).

Test system: ND1 DNA in EVs from patients
Assay: mtDNA ND1 level (qPCR) in circulating EVs of patients before and after therapy
Format: in vivo, human
Settings: FIG. 7d
Experimental: (Panel a), Dot plot of nuclear DNA copy number quantification as determined by qPCR for GAPDH gene in circulating EVs isolated from fresh collected plasma (5-8 ml) of 8 healthy controls and 20 luminal breast cancer patients at different stage of their disease (Table 5). Each point corresponds to a patient sample. (Panel b), Schematic and gel electrophoresis of whole mtDNA genome amplified in several patient derived circulating EV-DNA resulting from 46 overlapping PCR amplicons to cover all the mtDNA genome. (Panel c), mtDNA ND1 level change (Ct qPCR value from 2 ng of total EV-DNA) determined in the same patient (two different examples are reported) following time and therapy response (PR, partial response; Stable Disease; POD, progression of disease); (Panel d) mtDNA ND1 level change (Ct qPCR value from 2 ng of total EV-DNA) determined in two different patients (#1, #2) before and after a certain therapy. Data are reported as error bars, mean±s.d. of n=3 independent experiments. […]
DNA and cDNAs were amplified by quantitative PCR (qPCR) using the Applied Biosystem Viia™ 7 Real-Time PCR System in the Power SYBR® Green PCR Master Mix Buffer. […] For analysis, ΔΔct method was applied and fold change was calculated (2^−ΔΔct). […]

## COc1cccc2c1C(=O)c1c(O)c3c(c(O)c1C2=O)C[C@@](O)(C(=O)CO)C[C@@H]3O[C@H]1C[C@H](N)[C@H](O)[C@H](C)O1 [Doxorubicin]
  ND1 DNA level in EVs from patients receiving the therapy: higher
